In article PMC11050816, “Pharmacokinetics and Safety of Lurbinectedin Administrated with Itraconazole in Cancer Patients: A Drug–Drug Interaction Study” (Marine Drugs, 2024):

Legend:
[1] = cited from earlier work
[2] = Plasma pharmacokinetics of lurbinectedin metabolites M1 and M4 (metabolite/parent ratio) with and without itraconazole
Method: The study consisted of two parts. In Part A, three patients were sequentially enrolled to receive Sequence 1 (TR: Test–Reference) consisting of itraconazole (200 mg […]; once-daily for 12 days) co-administered with lurbinectedin (0.8 mg/m^2, 1 h, IV infusion q3wk) (Cycle 1), followed by two consecutive cycles (Cycles 2 and 3) of lurbinectedin alone (3.2 mg/m^2, 1 h, IV infusion q3wk), with the third cycle being optional. In Part B, patients were randomized (in a ratio 1:1, using sequence a block randomization implemented with Medidata Rave Randomization and Trial Supply Management [RTSM]) to receive either Sequence 1 (TR: Test–Reference), but with lurbinectedin 0.9 mg/m^2, 1 h, IV when co-administered with itraconazole, or Sequence 2 (RT: Reference–Test) of lurbinectedin alone (Cycle 1), followed by itraconazole and lurbinectedin co-administration (Cycle 2), with lurbinectedin alone (optional Cycle 3) (see Figure 2 above).
The itraconazole dose (200 mg) was selected based on the published literature for the design of clinical drug–drug interaction studies with itraconazole. In the co-administration cycles, itraconazole was administered as 200 mg (2 × 100 mg capsules) once-daily doses in the morning after breakfast for 12 consecutive days, self-administered at home starting from […] (i.e., four days before lurbinectedin infusion) to Day 8 (i.e., seven days after lurbinectedin infusion), following recommendations from the Summary of Product Characteristics. On Day 1 (day of lurbinectedin infusion), itraconazole was given immediately prior to the start of the lurbinectedin infusion. In fact, itraconazole had to be administered after collecting the first itraconazole PK sample and before the start of lurbinectedin infusion (−15 min to −1 min). In case of lurbinectedin delay (≤2 days), itraconazole could be administered for a maximum of 14 days (Figure 6). In Sequence 1 (TR), itraconazole for self-administration and the patient’s diary were given to the patient on Day −5 with a −2/+1 daytime window (i.e., from Day −7 to Day −4). In Sequence 2 (RT), itraconazole and the patient’s diary were given to the patient on Day −5 of Cycle 2 with a −2/+1 daytime window (i.e., from Day 15 of Cycle 1 to Day −4 of Cycle 2).
The impact of itraconazole on the lurbinectedin PK profile compared with that of lurbinectedin alone was evaluated using the primary study PK endpoints: Cmax and AUC0–∞ of total plasma lurbinectedin. Other secondary PK endpoints included AUC0–t, total plasma CL, t1/2, and the volume of distribution at steady state (Vss). The following unbound parameters were also estimated: AUCu,0–∞, AUCu,0–t, Cu,max, CLu, Vss,u, and t1/2,u. Plasma PK parameters were calculated with a standard non–compartmental analysis approach using Phoenix® WinNonlin® v6.4 (Certara USA, Inc., Princeton, NJ, USA).
Serial peripheral venous blood samples for the lurbinectedin PK analysis (and its metabolites M1 and M4) were collected in Cycle 1 and Cycle 2 (Sequences 1 and 2), with a schedule of thirteen samples in all patients as follows: at pre-dose, 5 min prior to the end of the lurbinectedin infusion, and at 0.5, 1, 2, 4, 6, 24, 48, 96, 168, 241, and 337 h post-dose on Days 1, 2, 3, 5, 8, 11, and 15. Only in Part B (Sequence 2) was a blood sampling test at 505 h post-lurbinectedin dosing to be collected before the lurbinectedin infusion started on Day 1 of Cycle 3, if detectable lurbinectedin concentrations were present in the pre-infusion sample in Cycle 2 of Part A. Blood samples for the PK analysis of itraconazole (and its active metabolite, hydroxy-itraconazole) were collected in cycles with itraconazole co-administration (i.e., Cycle 1 of Part A and B [Sequence 1] and Cycle 2 of Part B [Sequence 2]) at pre-dose and at 1, 2, 4, 24, and 168 h post-itraconazole dosing on Days 1, 2, and 8.

[3] = co-administration with itraconazole compared with lurbinectedin alone
[4] = treatment LRB alone (R), dose-normalized, n = 8
[5] = lurbinectedin + itraconazole divided by lurbinectedin alone

Row | Molecule | Mild and transient liver enzymes elevations, patients ([1]; chronic dosing) [%] | Risk of QTc prolongation in the electrocardiogram ([1]; especially at ≤200 mg once a day, in vitro data and clinical experience) | Conversion of lurbinectedin to the metabolite [2, 3] | Metabolite/parent ratio (MPR) of AUC0–t, geometric mean (CV%) ([2]; human, in vivo) | Metabolite/parent ratio (MPR) of Cmax, geometric mean (CV%) ([2]; human, in vivo) | Metabolite/parent ratio (MPR) of AUC0–t, geometric mean (CV%) [2, 4] | Metabolite/parent ratio (MPR) of Cmax, geometric mean (CV%) [2, 4] | Reduction of the conversion of lurbinectedin to the metabolite [2, 3] [%] | MPR of AUC0–t, least-squares geometric mean ratio [2, 5] [%] | MPR of Cmax, least-squares geometric mean ratio [2, 5] [%]
1 | CCC(C)n1ncn(-c2ccc(N3CCN(c4ccc(OCC5COC(Cn6cncn6)(c6ccc(Cl)cc6Cl)O5)cc4)CC3)cc2)c1=O (centres unmarked) [itraconazole] | < 5 | low |  |  |  |  |  |  |  | 
2 | 1′,3′–dihydroxy–lurbinectedin [M1] |  |  | almost completely inhibited | 0.74 (NA) µg·h/L/mg | 0.38 (NA) µg/L/mg | 0.48 (360.01) µg·h/L/mg | 0.29 (135.88) µg/L/mg |  |  | 
3 | COc1ccc2[nH]c3c(c2c1)CCN[C@]31CS[C@@H]2c3c(OC(C)=O)c(C)c4c(c3[C@H](COC1=O)N1[C@@H]2[C@@H]2N[C@@H](Cc3cc(C)c(OC)c(O)c32)[C@@H]1O)OCO4 [M4, N–desmethyl–lurbinectedin] |  |  |  | 1.29 (209.58) µg·h/L/mg | 0.61 (47.57) µg/L/mg | 1.45 (135.58) µg·h/L/mg | 0.49 (60.3) µg/L/mg | 69 | 31.53 | 92.47
